From PMC12142043, “Cell-based high-content approach for SARS-CoV-2 neutralization identifies unique monoclonal antibodies and PI3K pathway inhibitors” (Frontiers in Cell and Developmental Biology, 2025)
Structures can show the parent of a compound that is named as a salt. Where two headings read alike, the source gives them in different places.

Assays:
[1] = tested on: SARS-CoV-2 (USA-WA1/2020) in Calu-3 cells; assay: microbe, parasite or virus in culture; format: cell-based; details: for EC50 / EC50 (μM) dsRNA: above 30 μM reported as >30; for EC50: read-out: EC50 (μM) dsRNA; for Selectivity index: fold: cell count EC50 over dsRNA EC50
[2] = tested on: Calu-3 cells; assay: cells; details: Homo sapiens, Calu-3, read-out: EC50 (μM) Cell count
[3] = tested on: Calu-3 cells infected with SARS-CoV-2; format: cell-based, human; design: key to Grouping with red cluster (mock control) in UMAP: *: Clusters with mock control in high-dose treatment; details: high-dose treatment
[4] = tested on: SARS-CoV-2 (USA-WA1/2020) in Calu-3 cells; format: cell-based; details: Calu-3, 48 h; for dsRNA signal, AU High: high dose (10 µM); for dsRNA signal, AU Low: low dose (100 nM)
[5] = tested on: Calu-3 cells; details: for EC50: read-out: EC50 (μM) Cell count, Calu-3, DAPI-stained nuclei, above 30 μM reported as >30
[6] = Severe acute respiratory syndrome coronavirus 2, Calu-3, 48 h
[7] = listed as Flavopiridol hydrochloride

Row | SMILES | EC50 [1, 6] [µM] | Selectivity index [1] | EC50 [2] [µM] | Grouping with red cluster (mock control) in UMAP [3] | dsRNA signal, AU High [4] [AU] | dsRNA signal, AU Low [4] [AU] | dsRNA signal, AU High [4, 7] [AU] | dsRNA signal, AU Low [4, 7] [AU] | Effect on dsRNA / virus in dose response ([1]; Figure 5C-F) | Effect on host cell viability and morphology ([5]; Figure 5C-F) | EC50 [1] [µM] | EC50 [5] [µM] | EC50 (μM) dsRNA [1]
1 | COc1cc([C@@H]2c3cc4c(cc3[C@H](O)[C@H]3COC(=O)[C@@H]23)OCO4)cc(OC)c1OC [AXL1717] | 0.00332 | 246.615 | 0.82 | AXL1717* | 13380.1 | 31807.4 |  |  |  |  |  |  | 
2 | CN1CC[C@H](c2c(O)cc(O)c3c(=O)cc(-c4ccccc4Cl)oc23)[C@H](O)C1 [Flavopiridol HCl] | 11.4 | 0.032 | 0.364 | Flavopiridol HCl* |  |  | 187.1 | 16139.6 |  |  |  |  | 
3 | CC1(C)OCCn2c1nc1c(N3CCOCC3)nc(-c3cnc(N)nc3)nc12 [GDC-0084] | 1.5 | 0.873 | 1.31 | GDC-0084* |  |  |  |  |  |  |  |  | 
4 | C=CC(=O)N1CCC[C@@H](n2nc(-c3ccc(Oc4ccccc4)cc3)c3c(N)ncnc32)C1 [Ibrutinib] | 13.7 |  | > 30 |  | 3646.9 | 17695.2 |  |  | did block the virus in high concentrations | significant cell toxicity |  |  | 
5 | Cl.Cl.O=C(Cc1ccc(-c2ccc(OCCN3CCOCC3)cc2)cn1)NCc1ccccc1 [KX2-391 dihydrochloride] |  | 0.016 |  |  | 1685.1 | 2878.5 |  |  |  |  | 8.72 | 0.136 | 
6 | O=C(Nc1ncc(SCCN2CCCC2)s1)[C@]1(c2ccc(S(=O)(=O)C3CC3)cc2)C[C@H]1C1CCCCC1 [Ly2608204] |  | <0.69 |  | Ly2608204* |  |  |  |  |  |  | > 30 | 20.9 | 
7 | CCOc1cc2ncc(C#N)c(Nc3ccc(F)c(Cl)c3)c2cc1NC(=O)/C=C/CN(C)C [Pelitinib] |  |  | 5.88 | Pelitinib* |  |  |  |  |  |  |  |  | None
8 | Cc1ncc(CO)c(CO)c1O [Pyridoxine] | > 30 |  | > 30 | Pyridoxine* | 17847.0 | 29400.2 |  |  |  |  |  |  | 
9 | COc1cc(Nc2ncc(F)c(Nc3ccc4c(n3)NC(=O)C(C)(C)O4)n2)cc(OC)c1OC [R406, reference compound] |  |  |  |  | 5357.1 | 30563.4 |  |  |  |  |  | 1.84 | None
10 | Cc1cnc(Nc2ccc(OCCN3CCCC3)cc2)nc1Nc1cccc(S(=O)(=O)NC(C)(C)C)c1 [TG101348] |  |  | 1.61 | TG101348* | 3065.1 | 15118.2 |  |  |  |  |  |  | None
11 | CC(C)c1cc(CNc2nc(Nc3cc(C4CC4)[nH]n3)cc(N3CCN(C)CC3)n2)on1 [XL228] | 0.0745 | 0.891 | 0.0664 | XL228* | 17836.6 | 39819.2 |  |  |  |  |  |  | 
